For 65 compounds, EC50 results are on record in patent US9428456B2, “1-[m-carboxamido(hetero)aryl-methyl]-heterocyclyl-carboxamide derivatives” (Actelion Pharmaceuticals Ltd., priority 2012, dated 2016).

pEC50: −log10 of the molar value.

For orientation: pEC50 means the EC50 on a negative log10 scale, so that one unit is a factor of ten.

For this experiment, the target named is CXCR7 (Homo sapiens (Human), UniProt P25106). Briefly: PathHunter CHO-K1 CXCR7 b-arrestin assay (agonistic activity). In kind it is cell-based. To be noted: PathHunter CHO-K1 CXCR7 b-arrestin cell line. A digest of the protocol: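 CHO-K1 cells co-expressing ProLink-tagged CXCR7 and EA-fused β-arrestin 2 (enzyme fragment complementation); compounds added in HBSS/20 mM HEPES/0.2% BSA after 3–4 h in OPTIMEM, 90 min at 37 °C. Chemiluminescent β-gal signal read after 1 h detection at room temperature; EC50 reported as geometric mean of several measurements.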
Chain of CXCR7 (P25106 whole entry, the tested form may be a part): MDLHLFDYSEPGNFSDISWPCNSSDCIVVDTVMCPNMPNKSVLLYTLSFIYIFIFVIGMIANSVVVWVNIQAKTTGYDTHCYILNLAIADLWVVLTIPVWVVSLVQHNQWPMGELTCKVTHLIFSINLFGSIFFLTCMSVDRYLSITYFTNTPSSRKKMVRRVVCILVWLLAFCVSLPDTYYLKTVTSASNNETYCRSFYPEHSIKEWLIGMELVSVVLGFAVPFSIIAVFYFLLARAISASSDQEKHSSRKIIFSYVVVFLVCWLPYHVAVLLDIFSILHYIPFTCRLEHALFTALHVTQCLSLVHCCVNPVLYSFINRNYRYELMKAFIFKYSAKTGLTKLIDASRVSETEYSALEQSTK
Chain of CXCR7 (P32121 whole entry partner, the tested form may be a part): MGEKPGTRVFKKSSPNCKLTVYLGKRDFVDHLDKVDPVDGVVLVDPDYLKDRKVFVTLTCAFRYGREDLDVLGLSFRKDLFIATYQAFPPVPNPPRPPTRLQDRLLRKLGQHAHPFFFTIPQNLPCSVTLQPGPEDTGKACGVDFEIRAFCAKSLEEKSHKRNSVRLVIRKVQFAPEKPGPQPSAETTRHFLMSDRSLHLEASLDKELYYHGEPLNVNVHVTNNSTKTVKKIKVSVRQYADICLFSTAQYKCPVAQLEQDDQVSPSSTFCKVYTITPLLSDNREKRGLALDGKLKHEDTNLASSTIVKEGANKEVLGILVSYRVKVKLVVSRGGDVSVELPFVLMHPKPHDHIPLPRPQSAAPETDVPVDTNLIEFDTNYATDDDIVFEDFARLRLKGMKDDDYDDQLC
Compound `CCc1cncc(C(=O)Nc2cccc(CN3CCC(C(=O)NC4CCCCC4)CC3)c2)c1` [Example 1.154] showed a pEC50 of 8.70.

Take `COc1c(CN2CCC(C(=O)NC(C)(C)C)CC2)cccc1NC(=O)c1cncc(C)c1` [Example 1.320]: the pEC50 was 7.32.

Compound `O=C(Nc1cccc(CN2CCC(C(=O)NC3CC3)CC2)c1)c1ccc(F)cn1` [Example 1.205] showed a pEC50 of 8.70.

In the case of `O=C(Nc1cccc(CN2CCC(C(=O)NC3CCCCC3)CC2)c1)c1ccccn1` [Example 1.039], the pEC50 is 9.00.

For `O=C(Cc1ccccn1)Nc1cccc(CN2CCC(C(=O)NC3CCCCC3)CC2)c1` [Example 1.013], the pEC50 is 7.70.

Consider `CC(C)(C)NC(=O)C1CCN(Cc2cccc(NC(=O)c3ccc4ncsc4c3)c2)CC1` [Example 1.353], for which the pEC50 is 8.52.

The compound `O=C(Nc1cccc(CN2CCC(C(=O)NC3CCCCC3)CC2)c1)c1ncccc1Br` [Example 1.085] had a pEC50 of 9.00.

Take `O=C(Nc1cccc(CN2CCC(C(=O)NC3CCCCC3)CC2)c1)c1c[nH]c2ccccc12` [Example 1.027]: the pEC50 was 7.38.

In turn, `CC(C)(C)NC(=O)C1CCN(Cc2cccc(NC(=O)C3CCOC3)c2)CC1` (racemic) [Example 1.256] gave a pEC50 of 6.65.

Consider `Cc1cc(C)cc(C(=O)Nc2cccc(CN3CCC(C(=O)NC4CCCCC4)CC3)c2)c1` [Example 1.112], for which the pEC50 is 7.68.

In turn, `O=C(Nc1cccc(CN2CCC(C(=O)NC3CCCCC3)CC2)c1)c1ccncc1Cl` [Example 1.074] gave a pEC50 of 7.22.

In turn, `CC(c1cccc(NC(=O)Cc2cccc(C(F)(F)F)c2)c1)N1CCC(C(=O)NC2CCCCC2)CC1` (racemic) [Example 1.173] gave a pEC50 of 7.59.

`O=C(Nc1nc(CN2CCC(C(=O)NC3CCCC3)CC2)cs1)c1ccc(Cl)cc1` [Example 1.293]: the pEC50 is 7.09.

The compound `COc1ccc(CN2CCC(C(=O)NC(C)(C)C)CC2)cc1NC(=O)c1ccc(F)cc1` [Example 1.306] gave a pEC50 of 8.40.

Turning to `CCC(C)(C)NC(=O)C1CCN(Cc2cccc(NC(=O)c3ccc(Cl)cn3)c2)CC1` [Example 1.338], the pEC50 is 9.10.

Compound `O=C(Nc1cccc(CN2CCC(C(=O)NC3CCCC3)CC2)c1)c1cncc(F)c1` [Example 1.215] gave a pEC50 of 8.70.

Consider `O=C(Nc1cccc(CN2CCC(C(=O)NC3CCCCC3)CC2)c1)c1cc(F)cc(F)c1` [Example 1.019], for which the pEC50 was 8.70.

As to `CC(C)CNC(=O)C1CCN(Cc2cccc(NC(=O)c3cccc(C(F)(F)F)n3)c2)C1` (racemic) [Example 2.098, rac-6-Trifluoromethyl-pyridine-2-carboxylic acid [3-(3-isobutylcarbamoyl-pyrrolidin-1-ylmethyl)-phenyl]-amide], the pEC50 was 6.71.

The compound `CCc1ccc(NC(=O)c2cncc(C)c2)cc1CN1CCC(C(=O)NC(C)(C)C)CC1` [Example 1.333] gave a pEC50 of 7.24.

As to `CC(C)CN(C)C(=O)C1CCN(Cc2cccc(NC(=O)c3ccc(C(F)(F)F)cn3)c2)CC1` [Example 1.275], the pEC50 was 8.52.

For `O=C(Nc1cccc(CN2CCC(C(=O)NC3CCCCC3)CC2)c1)c1ccc(C(F)(F)F)cc1` [Example 1.105], the pEC50 was 8.30.

As to `Cc1cc(C(=O)Nc2cccc(CN3CCC(C(=O)NC4CCCCC4)CC3)c2)ccn1` [Example 1.055], the pEC50 was 8.00.

`CCC(c1cccc(NC(=O)c2cccc(C(F)(F)F)n2)c1)N1CCC(C(=O)NC2CCCCC2)CC1` (racemic) [Example 1.308] gave a pEC50 of 7.06.

`O=C(Nc1cc(CN2CCC(C(=O)NC3CCCCC3)CC2)ccc1Cl)c1ccncn1` [Example 1.157] showed a pEC50 of 8.70.

In the case of `O=C(Nc1cccc(CN2CCC(C(=O)NC3CCCC3)CC2)c1)c1ccc(C(F)(F)F)cn1` [Example 1.210], the pEC50 is 9.22.

Take `O=C(Nc1cccc(CN2CCC(C(=O)NC3CCCC3)CC2)c1)c1ccc(F)cc1` [Example 1.206]: the pEC50 was 9.05.

In turn, `CC(C)(C)NC(=O)C1CCN(Cc2cccc(NC(=O)c3cccc(Br)n3)c2)CC1` [Example 1.344] had a pEC50 of 9.05.

`CC(C)(C)NC(=O)C1CCN(Cc2cccc(NC(=O)C3(c4ccccc4)CC3)c2)CC1` [Example 1.309]: the pEC50 is 9.00.

With `CC(C)CN(C)C(=O)C1CCN(Cc2cccc(NC(=O)c3ccc(F)cc3)c2)CC1` [Example 1.273], the pEC50 was 8.70.

`CCc1cc(CN2CCC(C(=O)NC(C)(C)C)CC2)cc(NC(=O)c2cncc(C)c2)c1` [Example 1.330] had a pEC50 of 6.55.

The compound `Cc1cc(C(=O)Nc2cccc(CN3CCC(C(=O)NC4CCCCC4)CC3)c2)cc(C2CCCC2)n1` [Example 1.054] showed a pEC50 of 7.39.

`Cc1cc(CN2CCC(C(=O)NC(C)(C)C)CC2)cc(NC(=O)c2cccc(C(F)(F)F)n2)c1` [Example 1.316]: the pEC50 was 7.44.

As to `CC(C)(C)NC(=O)C1CCN(Cc2cccc(NC(=O)Cc3cc(F)c(Cl)cc3Cl)c2)CC1` [Example 1.252], the pEC50 was 8.40.

Take `O=C(Nc1cccc(CN2CCC(C(=O)NC3CCCCC3)CC2)c1)c1ncccn1` [Example 1.087]: the pEC50 is 7.44.

Compound `Cc1c(Cl)cccc1C(=O)Nc1cccc(CN2CCC(C(=O)NC3CCCCC3)CC2)c1` [Example 1.120] gave a pEC50 of 7.46.

The compound `N#Cc1cccc(C(=O)Nc2cccc(CN3CCC(C(=O)NC4CCCCC4)CC3)c2)c1` [Example 1.106] gave a pEC50 of 7.92.

For the compound `O=C(Nc1cccc(CN2CCC(C(=O)NC3CCCCC3)CC2)c1)c1cc(F)cc(Cl)c1` [Example 1.131], the pEC50 was 8.40.

`O=C(Nc1cccc(CN2CCC(C(=O)NC3CCCCC3)CC2)c1)C1CCC1` [Example 1.150]: the pEC50 was 7.60.

Compound `COc1ccc(C(=O)Nc2cccc(CN3CCC(C(=O)NC4CCCCC4)CC3)c2)cc1F` [Example 1.123] gave a pEC50 of 8.40.

Consider `CC(C)(C)NC(=O)C1CCN(Cc2cccc(NC(=O)Cc3ccc(F)cc3Cl)c2)C1` (racemic) [Example 2.097, rac-1-{3-[2-(2-Chloro-4-fluoro-phenyl)-acetylamino]-benzyl}-pyrrolidine-3-carboxylic acid tert-butylamide], for which the pEC50 was 7.43.

For “1-[3-(4-Chloro-benzoylamino)-benzyl]-piperidine-4-carboxylic acid (1-cyano-cyclopropyl)-amide [Example 2.036]”, the pEC50 was 7.82.

The compound `O=C(Nc1ccc(Cl)c(CN2CCC(C(=O)NC3CCCC3)CC2)c1)c1ccc(C(F)(F)F)cn1` [Example 1.220] gave a pEC50 of 9.00.

`COc1ccccc1CC(=O)Nc1cccc(CN2CCC(C(=O)NC3CCCCC3)CC2)c1` [Example 1.035] had a pEC50 of 8.40.

The compound `Cc1cncc(C(=O)Nc2cccc(CN3CCC(C(=O)NC4CCCC4)CC3)c2)c1` [Example 6.002, N-(3-((4-(cyclopentylcarbamoyl)piperidin-1-yl)d2methyl)phenyl)-5-methylnicotinamide] gave a pEC50 of 8.40.

Compound `CC(C)(C)NC(=O)C1CCN(Cc2cccc(NC(=O)C3CNc4ccccc43)c2)CC1` (racemic) [Example 1.265] gave a pEC50 of 7.82.

As for `O=C(Nc1cccc(CN2CCC(C(=O)NC3CC3)CC2)c1)c1cc(Cl)ccn1` [Example 1.200], the pEC50 is 7.80.

`CC(C)(C)NC(=O)C1CCN(Cc2cccc(NC(=O)C3Cc4ccccc43)c2)CC1` (racemic) [Example 1.271] had a pEC50 of 9.00.

Compound `CC(C)(C)NC(=O)C1CCN(Cc2cccc(NC(=O)C3(c4ccc(Cl)cc4)CC3)c2)CC1` [Example 1.310] gave a pEC50 of 8.70.

On to `O=C(Nc1cccc(CN2CCC(C(=O)NC3CCCCC3)CC2)c1)c1cccc(C(F)(F)F)c1` [Example 1.104], for which the pEC50 was 8.30.

For `O=C(Nc1cccc(CN2CCC(C(=O)NC3CCCC3)CC2)c1)c1cncc(Cl)c1` [Example 1.209], the pEC50 was 9.00.

Consider `CCc1ccc(CN2CCC(C(=O)NC(C)(C)C)CC2)cc1NC(=O)c1cccc(C(F)(F)F)n1` [Example 1.326], for which the pEC50 was 8.70.

Compound `Cc1cnc(C(=O)Nc2cccc(CN3CCC(C(=O)NC4CCCCC4)CC3)c2)cn1` [Example 1.142] showed a pEC50 of 8.70.

Turning to `O=C(Nc1cccc(CN2CCC(C(=O)NC3CCCCC3)CC2)c1)c1ncc[nH]1` [Example 1.038], the pEC50 is 7.89.

On to `O=C(Nc1cccc(CN2CCC(C(=O)NC3CCCC3)CC2)c1)c1cnc2ccccc2c1` [Example 1.211], for which the pEC50 was 8.52.

In turn, `CC(C)(C)NC(=O)C1CCN(Cc2cccc(NC(=O)Cc3ccccc3Cl)c2)CC1` [Example 1.258] gave a pEC50 of 9.00.

`Cc1cc(C)nc(C(=O)Nc2cccc(C(C)N3CCC(C(=O)NC4CCCCC4)CC3)c2)c1` (racemic) [Example 1.192] gave a pEC50 of 6.99.

`CC(C)(C)NC(=O)C1CCN(Cc2cc(Br)cc(NC(=O)c3cccc(C(F)(F)F)n3)c2)CC1` [Example 1.279] gave a pEC50 of 6.38.

`CC(C)(C)NC(=O)C1CCN(Cc2cccc(NC(=O)C(O)c3ccccc3Cl)c2)CC1` (racemic) [Example 1.270] gave a pEC50 of 8.22.

Turning to `N#Cc1ccc(C(=O)Nc2cccc(CN3CCC(C(=O)NC4CCCCC4)CC3)c2)cc1` [Example 1.107], the pEC50 is 8.10.

In turn, `COc1cc(C(=O)Nc2cccc(CN3CCC(C(=O)NC4CCCCC4)CC3)c2)nc(OC)n1` [Example 1.062] gave a pEC50 of 7.24.

Regarding `Cc1ccc(CN2CCC(C(=O)NC(C)(C)C)CC2)cc1NC(=O)c1ccc(F)cc1` [Example 1.303], the pEC50 was 8.52.

`CC(C)(C)NC(=O)C1CCN(Cc2cccc(NC(=O)Cc3c(F)cccc3Cl)c2)CC1` [Example 1.247] had a pEC50 of 8.70.

For the compound `Cc1ccc(C)c(C(=O)Nc2cccc(CN3CCC(C(=O)NC4CCCCC4)CC3)c2)c1` [Example 1.110], the pEC50 is 8.10.

`CC(C)CN(C)C(=O)C1CCN(Cc2cccc(NC(=O)c3cccc(C(F)(F)F)n3)c2)CC1` [Example 1.274] showed a pEC50 of 8.05.

Regarding `O=C(Cc1cccc(Cl)c1)Nc1cccc(CN2CCC(C(=O)NC3CCCCC3)CC2)c1` [Example 1.024], the pEC50 is 8.00.
